Consider four molecules from paper PMC3720905, “A Conserved Aspartic Acid Is Important for Agonist (VUAA1) and Odorant/Tuning Receptor-Dependent Activation of the Insect Odorant Co-Receptor (Orco)” (PLoS ONE, 2013).

Assay [1] has as its target T1, DmelOrco (N-myc DmelOrco) (Drosophila melanogaster, UniProt Q9VNB5).
T1 construct: gene Orco; homomeric channel; ~50 kDa band
T1 sequence (Q9VNB5 1-486): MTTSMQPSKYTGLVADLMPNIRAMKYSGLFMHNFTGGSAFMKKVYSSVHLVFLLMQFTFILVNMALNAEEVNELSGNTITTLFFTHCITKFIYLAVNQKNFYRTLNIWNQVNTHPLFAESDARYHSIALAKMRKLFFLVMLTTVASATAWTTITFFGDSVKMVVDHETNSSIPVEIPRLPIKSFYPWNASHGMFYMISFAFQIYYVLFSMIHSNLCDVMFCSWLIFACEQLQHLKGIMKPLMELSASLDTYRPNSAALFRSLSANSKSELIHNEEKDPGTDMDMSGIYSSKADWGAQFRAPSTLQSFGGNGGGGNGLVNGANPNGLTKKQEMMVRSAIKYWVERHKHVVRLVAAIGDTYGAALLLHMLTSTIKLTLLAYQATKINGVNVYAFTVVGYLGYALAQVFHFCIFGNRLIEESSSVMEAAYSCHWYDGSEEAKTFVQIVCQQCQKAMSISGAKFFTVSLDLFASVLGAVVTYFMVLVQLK
The assay can be described thus: Ca2+ influx (Fluo-4 fluorescence). Format: cell-based.

Assay [2] deals with T2, DmelOrco (N-myc DmelOrco) (Drosophila melanogaster, UniProt Q9VNB5, D357N).
T2 construct: gene Orco; homomeric channel; ~50 kDa band
T2 sequence (Q9VNB5 1-486 D357N): T1 sequence (Q9VNB5 1-486)
The assay can be described thus: Ca2+ influx (Fluo-4 fluorescence). It counts as cell-based.

In assay [3] the target is T3, DmelOrco (N-myc DmelOrco) (Drosophila melanogaster, UniProt Q9VNB5, D466N).
T3 construct: gene Orco; homomeric channel; ~50 kDa band
T3 sequence (Q9VNB5 1-486 D466N): T1 sequence (Q9VNB5 1-486)
Nature of the assay: Ca2+ influx (Fluo-4 fluorescence). It counts as cell-based.

The target of assay [4] is T4, DmelOrco (N-myc DmelOrco) (Drosophila melanogaster, UniProt Q9VNB5, D466E).
T4 construct: gene Orco; homomeric channel; ~50 kDa band
T4 sequence (Q9VNB5 1-486 D466E): T1 sequence (Q9VNB5 1-486)
The assay can be described thus: Ca2+ influx (Fluo-4 fluorescence). Format: cell-based.

In assay [5] the target is T5, DmelOrco/DmelOR22a complex (Drosophila melanogaster, UniProt P81909).
T5 construct: gene Or22a; heteromeric channel; Or22a in pCI transiently transfected into Flp-In 293 T-REX cells stably expressing N-myc DmelOrco; stoichiometry unknown; with Odorant receptor coreceptor
T5 sequence (P81909 1-397): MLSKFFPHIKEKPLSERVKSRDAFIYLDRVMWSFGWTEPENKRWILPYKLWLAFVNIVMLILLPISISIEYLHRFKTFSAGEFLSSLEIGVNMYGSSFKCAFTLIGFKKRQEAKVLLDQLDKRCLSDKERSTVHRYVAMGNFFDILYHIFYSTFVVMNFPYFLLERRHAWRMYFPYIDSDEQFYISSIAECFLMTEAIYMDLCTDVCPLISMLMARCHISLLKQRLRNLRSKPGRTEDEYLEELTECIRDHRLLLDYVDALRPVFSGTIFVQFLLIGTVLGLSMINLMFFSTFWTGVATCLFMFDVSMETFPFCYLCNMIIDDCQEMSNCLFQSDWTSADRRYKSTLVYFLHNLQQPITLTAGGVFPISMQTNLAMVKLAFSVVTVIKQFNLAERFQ
T5 sequence (Q9VNB5 1-486 partner): T1 sequence (Q9VNB5 1-486)
The assay can be described thus: Ca2+ influx (Fluo-4 AM fluorescence). It counts as cell-based. To be noted: heteromeric channel, odorant agonist; data not shown.

Assay [6] has as its system T6, DmelOrco/AgOR65 complex.
T6 construct: gene Or65; mixed-species heteromeric channel; AgOR65 in pCI transfected into Flp-In 293 T-REX cells stably expressing N-myc DmelOrco; with Odorant receptor coreceptor (Drosophila melanogaster)
Nature of the assay: Ca2+ influx (Fluo-4 AM fluorescence). It counts as cell-based, Anopheles gambiae. Conditions: log10 of molar EC50 (unit not given); heteromeric channel, odorant agonist.

Assay [7] has as its system T6, DmelOrco/AgOR65 complex. Nature of the assay: Ca2+ influx (Fluo-4 AM fluorescence). Format: cell-based, Anopheles gambiae. To be noted: log10 of molar EC50 (unit not given); heteromeric channel, odorant agonist. This is another data set of the same source.
The test system of assay [8] is T6, DmelOrco/AgOR65 complex. The assay can be described thus: Ca2+ influx (Fluo-4 AM fluorescence). It counts as cell-based, Anopheles gambiae. To be noted: log10 of molar EC50 (unit not given); heteromeric channel, odorant agonist. The source holds these as a separate data set.
Assay [9] has as its target T5, DmelOrco/DmelOR22a complex. Nature of the assay: Ca2+ influx (Fluo-4 AM fluorescence). It counts as cell-based.

With `CCc1ccc(NC(=O)CSc2nnc(-c3cccnc3)n2CC)cc1` [VUAA1, N-(4-ethylphenyl)-2-((4-ethyl-5-(3-pyridinyl)-4H-1,2,4-triazol-3-yl)thio)acetamide], the concentration giving a half-maximal response (EC50) in assay [1] was 46.8 µM; in assay [2] it was 38 µM; in assay [3], 85.1 µM; in assay [4] it was 21.4 µM.

With `CCCCCC(=O)OCC` [ethyl hexanoate], the “Ca2+ influx (Fluo-4 AM fluorescence)” value in assay [5] is “Essentially identical responses were observed to ethyl hexanoate”.

As to `C=CCc1ccc(O)c(OC)c1` [eugenol], the LogEC50 in [6] is -6.54±0.05; in assay [7], -6.34±0.04; in assay [8], -6.75±0.03.

Molecule `CCCCCC(=O)OC` [methyl hexanoate] showed an EC50 in assay [9] of 0.417 µM.

As a reminder, the EC50 is the concentration at which the effect is half-maximal. A high value points to a need for much substance.
